Laboratory results taken from patent US20040142853A1, “Stimulation of hair growth by compositions containing peptide copper complexes and minoxidil” (priority 2002, published 2004).

System: cultured hair follicles
Experiment: Radioactive cysteine incorporation in cultured hair follicles as a measure of hair growth
Type: cell-based, mice
Protocol: In this system, follicles were dissected from 4 day old mice. Healthy follicles were selected visually and cultured in serum free media supplemented with insulin, transferrin and selenium. The activity of compositions comprising one or more of the test compounds in stimulating hair growth was measured by radioactive cysteine labeling of the newly formed hair proteins and expressed as a percentage of the activity of a control (i.e., no test compounds present).

Glycyl-L-Histidyl-L-Lysyl-L-Valyl-L-Phenylalanyl-L-Valine: Copper Complex
radioactive cysteine incorporation relative to control (result in words) (at the concentrations used (Minoxidil 1 mM, peptide copper complex 10 μM)): stimulated radioactive cysteine incorporation above that of the control
% of Cysteine Incorporation of Control (no addition) (peptide copper complex 10 μM, follicles from 4 day old mice, serum free media): 113%
